Measurements reported in US20230114674A1, “ISOINDOLINE DERIVATIVE, AND PHARMACEUTICAL COMPOSITION AND USE THEREOF” (KANGPU BIOPHARMACEUTICALS, LTD., priority 2020, published 2023).

test system: MM.1S myeloma cells; assay: Cell proliferation inhibition test by MTS assay; type: cell-based; conditions: Homo sapiens, MM1.S, 72 hours drug treatment, 15,000 cells/well, 96-well plate
Experimental: Experimental Method for Cell Proliferation Inhibition Test by MTS Assay:
Proliferating MM.1S myeloma cells (ATCC, Cat #CRL-2974) were resuspended in RPMI-640 medium (Gibco, Cat #A10491-01) and counted using an automated cell counter. The cell suspension was diluted to the needed density and 100 μl (15,000 cells) of the cell suspension was plated per well in a 96-well plate. The plate was cultured in a 37° C., 5% CO2 incubator for 24 hours. On the day of administration, each compound was formulated into 20 mM stock solution with DMSO (Sigma, Cat #D2650), diluted with a medium to the needed concentration, and then added to the corresponding wells for the cell proliferation inhibition test with a drug of 4-fold serial dilution with 10 points. The final concentration of DMSO was 0.5%. After drug addition, the 96-well plate was cultured in a 37° C., 5% CO2 incubator for 72 hours. Then, 20 μl of MTS (Promega, Cat #G3581) was added to each well and the plate was cultured for 2 hours in a 37° C., 5% CO2 incubator, and then the absorbance at 490 nm of each well was recorded using an Ensight instrument. The reading of the cells at Day 0 was used as a negative control and the reading of cells with 0.5% DMSO at Day-3 was used as a positive control. Cell proliferation inhibition curve was plotted using GraphPad Prism 5 software and the IC50 value was calculated. Experiment results can be seen in Table 1.

**Q.** Which IC50 does the source give for Nc1cccc2c1CN(C1CCC(=O)NC1=O)C2=O (stereo not shown) [Control 1, reference compound] here?
**A.** 23.1 nM

test system: MM.1S myeloma cells; assay: Cell proliferation inhibition test by CTG (CellTiter-Glo) assay; type: cell-based; conditions: Homo sapiens, MM1.S, 120 hours drug treatment, 4,000 cells/well, 384-well plate, read-out: MM.2S IC50
Experimental: Experimental Method for Cell Proliferation Inhibition Test by CTG Assay:
The proliferation inhibitory activity of the compounds in the MM.1S myeloma cell model was determined by CellTiter-Glo (CTG) Luminescent Cell Viability Assay (Promega). MM.1S cells (ATCC, Cat #CRL-2974) at exponential phase were resuspended in RPMI-1640 (Gibco, Cat #11875-093)+10% FBS+1% penicillin/streptomycin+2 mM Glutamax medium and counted using an automated cell counter (ViCellXR). According to the optimized cell plating density in the pre-experiments, 40 μl of cell suspension at a density of 100,000 cells/ml was plated in the corresponding wells of a 384-well plate (4,000 cells/well) to ensure that cells in the control group were at linear growth phase within the five-day experimental period. The plated 384-well plate was cultured in a 37° C., 5% CO2 incubator for 24 hours. On the day of administration, each compound was formulated into 10 mM stock solution with DMSO (Sigma, Cat #276855-1L) and the stock solution was further diluted with DMSO to 20 μM and 20 nM working solutions. Drug treatment of MM.1S cells started at a concentration of up to 100 nM and the drug was serial diluted 4-fold with 10 points, with three replicate wells. Nanoliter volumes of compound solutions were added to the corresponding wells of the 384-well plate according to the needed concentration in a non-contact spraying manner by an HPD300 microscale automated dispenser (Tecan). The final concentration of DMSO was 0.5%. After drug addition, the 384-well plate was cultured in a 37° C., 5% CO2 incubator for 120 hours. After five days of drug treatment, 25 μl of CTG reagent (Promega, Cat #G7573) was added to each well, and the plate was shaken on a plate shaker for 10 minutes to ensure that the cells were fully lysed, and then left to stand at room temperature for 10 minutes to ensure a sufficient reaction of CTG with the substrate and the generation of a stable luminescent signal. The signal is proportional to the amount of ATP in the cell lysate, i.e., the number of metabolically active cells. Chemiluminescence of the cells in the plate was detected by an EnSpire instrument. The reading of the cells at Day 0 was used as a control for cells at growth starting point and the reading of cells with 0.5% DMSO at Day 5 was used as a control for cells under growth. Cell proliferation inhibition curve was plotted using XLFit software and the IC50 value was calculated. Experiment results can be seen in Table 2.

**Q.** Which IC50 does the source give for CNC(=O)c1ccc(N2CCN(Cc3ccc(COc4cccc5c4CN([C@H]4CCC(=O)NC4=O)C5=O)cc3F)CC2)cc1F [CM-45] here?
**A.** 0.0938 nM

**Q.** Which IC50 does the source give for COc1c(C#N)ccc(N2CCN(Cc3ccc(COc4cccc5c4CN([C@H]4CCC(=O)NC4=O)C5=O)c(F)c3)CC2)c1F [CM-49] here?
**A.** 0.0606 nM

**Q.** Which IC50 does the source give for Nc1cccc2c1CN(C1CCC(=O)NC1=O)C2=O (stereo not shown) [Control 1, reference compound] here?
**A.** 119 nM

**Q.** N#Cc1ccc(N2CCN(Cc3ccc(COc4cccc5c4CN([C@H]4CCC(=O)NC4=O)C5=O)c(F)c3)CC2)c(F)c1Cl [CM-48] was tested. Which IC50 did it give?
**A.** 0.0365 nM

**Q.** CCOc1cc(N2CCN(Cc3ccc(COc4cccc5c4CN([C@H]4CCC(=O)NC4=O)C5=O)cc3F)CC2)ccc1C#N [CM-46] was tested. Which IC50 did it give?
**A.** 0.0687 nM

**Q.** With N#Cc1ccc(N2CCN(Cc3ccc(COc4cccc5c4CN([C@H]4CCC(=O)NC4=O)C5=O)c(F)c3)CC2)c(F)c1C(F)(F)F [CM-47] as the compound, how does the IC50 read?
**A.** 0.135 nM
